{"source": "patent US8586603B2", "about": "“Aminotetraline derivatives” (priority 2009, dated 2013)", "key": {"[1]": {"experiment": "Stability in PBS buffer pH 7.4 and SGF with 0.5% DMSO", "assay_type": "physicochemical", "conditions": "37° C.", "method": "5 μL DMSO stock solution of compound 1 (2 mg/mL) were diluted with […] PBS buffer pH 7.4 and 995 μL Simulated Gastric Fluid (SGF). After dilution the samples were immediately analysed by HPLC. After the initial injection, each sample solution was repeatedly injected over a period of approximately 12 hours."}, "[2]": {"test_system": "formalin-induced hind paw licking in CD-1 mice", "experiment": "Animal pain test (formalin assay)", "assay_type": "in vivo", "conditions": "for % Inhibition of hind paw licking time: vs vehicle", "method": "The formalin test is being widely accepted as a valid basic model of persistent clinical pain, and may indicate a compound's efficacy in neuropathic and/or inflammatory pain conditions.\nCompound 1 and a comparator (gabapentin 100 mg/kg) were administered to groups of 5 or 10 CD-1 (Crl.) derived male mice weighing 24±2 g. Test substances and vehicle (0.2% HPMC/0.9% NaCl) were each administered by intraperitoneal injection (gabapentin) or oral gavage (compound 1) 15 or 30 minutes before subplantar injection of formalin (0.02 ml, 2% solution). Reduction of the formalin-induced hind paw licking time recorded at 5-minute interval during the following 0- to 35-minute after formalin injection by 50 percent or more (≧50%) indicated significant analgesic activity. Also, statistical analysis was performed by using one-way ANOVA followed by Dunnett's test to compare the test compound-treated and vehicle control groups. Significance is considered at P<0.05 level. Acute toxic symptoms and autonomic effects were observed after the administration of test compounds."}, "[3]": {"biological_target": "T1, porcine cortical p5-HT1a serotonin receptor (Sus scrofa, UniProt A0A4X1UTF5)", "T1 construct": "membrane homogenates prepared from porcine striatal or cortical tissue; from tissue; host or cells: porcine cortex", "T1 sequence (A0A4X1UTF5 1-422)": "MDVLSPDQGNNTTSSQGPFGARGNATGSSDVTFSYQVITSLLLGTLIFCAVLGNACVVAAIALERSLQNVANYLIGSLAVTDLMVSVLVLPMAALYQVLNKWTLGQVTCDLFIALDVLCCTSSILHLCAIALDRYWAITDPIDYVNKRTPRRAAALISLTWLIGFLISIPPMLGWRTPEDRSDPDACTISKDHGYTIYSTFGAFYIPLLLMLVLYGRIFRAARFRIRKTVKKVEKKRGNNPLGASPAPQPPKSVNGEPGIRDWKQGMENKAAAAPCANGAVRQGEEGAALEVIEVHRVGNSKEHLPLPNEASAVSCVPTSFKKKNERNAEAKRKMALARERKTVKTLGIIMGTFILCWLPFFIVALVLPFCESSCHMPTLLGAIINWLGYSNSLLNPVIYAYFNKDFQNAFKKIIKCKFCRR", "experiment": "Receptor binding assay, [3H]WAY100635 competition, porcine cortical membranes"}, "[4]": {"experiment": "Saturated solution in phosphate buffer pH 6.2", "assay_type": "physicochemical", "method": "For the permeation experiments horizontal cells with an acceptor and donor volume of approx. 23 mL of phosphate buffer pH 6.2 were used. The donor cells contained saturated solutions of compound 1 (2 mg/mL) in phosphate buffer pH 6.2. The experiments were performed at a temperature of 32° C. and the acceptor and donor media were slowly stirred. For the study pig leg skin with thickness of 300-500 μm were used. The experiments were performed in triplicate (n=3) over a period of 48 hours. During this time period six samples at different time points (after 2, 4, 6, 8, 24 and 48 hours) were taken. After each individual incubation period the concentration of the test compound in the acceptor medium was analysed by HPLC at 275 nm, 20° C., flow rate 2.0 mL/min in acetonitrile/water/TFA."}, "[5]": {"biological_target": "T2, human dopamine receptor subtype hD3 (Homo sapiens, UniProt P35462)", "T2 construct": "expressed in transfected cells; host or cells: CHO", "T2 sequence (P35462 whole entry)": "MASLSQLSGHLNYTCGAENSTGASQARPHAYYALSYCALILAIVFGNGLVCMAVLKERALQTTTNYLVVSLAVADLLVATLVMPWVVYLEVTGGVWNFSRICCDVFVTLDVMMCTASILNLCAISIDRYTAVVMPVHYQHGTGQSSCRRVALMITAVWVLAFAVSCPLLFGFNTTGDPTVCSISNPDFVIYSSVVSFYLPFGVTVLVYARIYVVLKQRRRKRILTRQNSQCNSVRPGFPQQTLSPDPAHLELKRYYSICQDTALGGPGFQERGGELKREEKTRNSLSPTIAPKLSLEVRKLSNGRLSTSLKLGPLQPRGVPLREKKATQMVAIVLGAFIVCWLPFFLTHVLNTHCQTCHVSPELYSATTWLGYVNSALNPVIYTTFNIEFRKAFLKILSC", "experiment": "Receptor binding assay, [3H]spiperone competition, CHO cell membranes", "method": "(§1) Receptor binding data were determined when performing competition binding assays with membrane preparations of cloned cells (stably transfected Chinese Hamster Ovary cells (CHO)) expressing the human receptors and the following radioligands: [^3H]spiperone at the human dopamine receptor subtypes hD2long, hD2short, D3, and hD4.4.\n(§2) Selectivity ratios were calculated by division of the Ki values of the various compounds at the respective receptors through the Ki values at the 5HT1a receptor."}, "[6]": {"biological_target": "T3, human dopamine receptor subtype hD2long (Homo sapiens, UniProt P14416)", "T3 construct": "expressed in transfected cells; host or cells: CHO", "T3 sequence (P14416 whole entry)": "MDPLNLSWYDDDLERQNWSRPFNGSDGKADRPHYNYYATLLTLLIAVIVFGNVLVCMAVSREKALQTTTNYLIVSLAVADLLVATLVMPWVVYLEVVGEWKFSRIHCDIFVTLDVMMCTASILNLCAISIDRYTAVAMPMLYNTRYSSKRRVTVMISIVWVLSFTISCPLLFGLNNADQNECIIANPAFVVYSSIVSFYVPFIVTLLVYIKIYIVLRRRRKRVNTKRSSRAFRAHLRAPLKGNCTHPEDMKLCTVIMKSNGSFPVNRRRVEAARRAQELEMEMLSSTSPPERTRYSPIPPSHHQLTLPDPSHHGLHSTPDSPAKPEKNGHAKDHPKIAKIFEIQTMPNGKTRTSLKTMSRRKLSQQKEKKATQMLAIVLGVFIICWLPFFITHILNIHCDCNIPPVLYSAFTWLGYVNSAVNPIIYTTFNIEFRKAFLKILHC", "experiment": "Receptor binding assay, [3H]spiperone competition, CHO cell membranes", "method": "as §1, §2"}, "[7]": {"biological_target": "T4, human dopamine receptor subtype hD2short (Homo sapiens, UniProt P14416)", "T4 construct": "expressed in transfected cells; host or cells: CHO", "T4 sequence (P14416 1-414 isoform P14416-2)": "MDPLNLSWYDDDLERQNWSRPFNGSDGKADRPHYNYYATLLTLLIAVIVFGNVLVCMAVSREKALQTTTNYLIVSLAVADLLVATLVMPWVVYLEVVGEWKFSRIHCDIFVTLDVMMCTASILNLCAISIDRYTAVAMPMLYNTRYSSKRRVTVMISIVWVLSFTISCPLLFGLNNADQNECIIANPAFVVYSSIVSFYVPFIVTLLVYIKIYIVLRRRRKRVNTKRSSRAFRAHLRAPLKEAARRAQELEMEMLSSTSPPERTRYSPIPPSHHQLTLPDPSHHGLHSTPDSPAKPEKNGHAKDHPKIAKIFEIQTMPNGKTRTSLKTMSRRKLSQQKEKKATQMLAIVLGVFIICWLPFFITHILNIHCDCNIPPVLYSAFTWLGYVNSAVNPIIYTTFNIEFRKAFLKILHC", "experiment": "Receptor binding assay, [3H]spiperone competition, CHO cell membranes", "method": "as §1, §2"}, "[8]": {"conditions": "5 mg/kg oral, interval 0-5 minutes"}, "[9]": {"conditions": "5 mg/kg oral, interval 5-10 minutes"}, "[10]": {"conditions": "5 mg/kg oral, interval 10-15 minutes"}, "[11]": {"conditions": "5 mg/kg oral, interval 15-20 minutes"}, "[12]": {"conditions": "5 mg/kg oral, interval 20-25 minutes"}, "[13]": {"conditions": "5 mg/kg oral, interval 25-30 minutes"}, "[14]": {"conditions": "5 mg/kg oral, interval 30-35 minutes"}, "[15]": {"conditions": "10 mg/kg oral, interval 0-5 minutes"}, "[16]": {"conditions": "10 mg/kg oral, interval 5-10 minutes"}, "[17]": {"conditions": "10 mg/kg oral, interval 20-25 minutes"}, "[18]": {"conditions": "10 mg/kg oral, interval 25-30 minutes"}, "[19]": {"conditions": "10 mg/kg oral, interval 30-35 minutes"}, "[20]": {"conditions": "means of 2-8 individual experiments each done as triplicate"}}}
{"smiles": "CCCN(CCc1cccs1)C1CCc2cccc(O)c2C1", "note": "(stereo not drawn) [Compound 1, N-(8-Hydroxytetralin-2-yl)-N-propyl-N-[2-(2-thienyl)ethyl]amine]", "values": [{"measurement": "degradation (stability)", "setting": "[1]; PBS buffer pH 7.4, 12 hours", "result": "No degradation"}, {"measurement": "degradation (stability)", "setting": "[1]; simulated gastric fluid (pH 1-2), 12 hours", "result": "No degradation"}, {"measurement": "analgesic effect", "setting": "[2]; 1 mg/kg oral administration", "result": "no analgesic effect"}, {"measurement": "analgesic effect", "setting": "[2]; 3 mg/kg oral administration", "result": "some effect"}, {"measurement": "Hind Paw Licking Times", "setting": "[2]; [8]", "result": "63.4 ± 7.2", "unit": "s"}, {"measurement": "% Inhibition of hind paw licking time", "setting": "[2]; [8]", "result": "(18%)"}, {"measurement": "Hind Paw Licking Times", "setting": "[2]; [9]", "result": "10.2 ± 3.9", "unit": "s"}, {"measurement": "% Inhibition of hind paw licking time", "setting": "[2]; [9]", "result": "(0%)"}, {"measurement": "Hind Paw Licking Times", "setting": "[2]; [10]", "result": "25.1 ± 11.6", "unit": "s"}, {"measurement": "% Inhibition of hind paw licking time", "setting": "[2]; [10]", "result": "(54%)"}, {"measurement": "Hind Paw Licking Times", "setting": "[2]; [11]", "result": "56.7 ± 18", "unit": "s"}, {"measurement": "% Inhibition of hind paw licking time", "setting": "[2]; [11]", "result": "(44%)"}, {"measurement": "Hind Paw Licking Times", "setting": "[2]; [12]", "result": "54.7 ± 9.4", "unit": "s"}, {"measurement": "% Inhibition of hind paw licking time", "setting": "[2]; [12]", "result": "(12%)"}, {"measurement": "Hind Paw Licking Times", "setting": "[2]; [13]", "result": "54.7 ± 15.1", "unit": "s"}, {"measurement": "% Inhibition of hind paw licking time", "setting": "[2]; [13]", "result": "(0%)"}, {"measurement": "Hind Paw Licking Times", "setting": "[2]; [14]", "result": "24.7 ± 9.8", "unit": "s"}, {"measurement": "% Inhibition of hind paw licking time", "setting": "[2]; [14]", "result": "(0%)"}, {"measurement": "analgesic effect", "setting": "[2]; 10 mg/kg oral administration, 10-20 minutes period", "result": "significant analgesic effect"}, {"measurement": "Hind Paw Licking Times", "setting": "[2]; [15]", "result": "64.3 ± 7.3", "unit": "s"}, {"measurement": "% Inhibition of hind paw licking time", "setting": "[2]; [15]", "result": "(16%)"}, {"measurement": "Hind Paw Licking Times", "setting": "[2]; [16]", "result": "0 ± 0", "unit": "s"}, {"measurement": "% Inhibition of hind paw licking time", "setting": "[2]; [16]", "result": "(100%)"}, {"measurement": "% Inhibition of hind paw licking time", "setting": "[2]; 10 mg/kg oral, interval 10-15 minutes", "result": "(96%)"}, {"measurement": "% Inhibition of hind paw licking time", "setting": "[2]; 10 mg/kg oral, interval 15-20 minutes", "result": "(69%)"}, {"measurement": "Hind Paw Licking Times", "setting": "[2]; [17]", "result": "37.5 ± 13.6", "unit": "s"}, {"measurement": "% Inhibition of hind paw licking time", "setting": "[2]; [17]", "result": "(40%)"}, {"measurement": "Hind Paw Licking Times", "setting": "[2]; [18]", "result": "29.9 ± 12.7", "unit": "s"}, {"measurement": "% Inhibition of hind paw licking time", "setting": "[2]; [18]", "result": "(0%)"}, {"measurement": "Hind Paw Licking Times", "setting": "[2]; [19]", "result": "12.8 ± 8.8", "unit": "s"}, {"measurement": "% Inhibition of hind paw licking time", "setting": "[2]; [19]", "result": "(10%)"}, {"measurement": "activity in an oral animal model of pain", "setting": "[2]; oral", "result": "active"}, {"measurement": "Ki", "setting": "[3]; [20]", "result": 0.73, "unit": "nM"}, {"measurement": "selectivity ratio p5-HT1a", "setting": "[3]; reference receptor of the ratio (=1)", "result": 1}, {"measurement": "concentration of saturated solution", "setting": "[4]", "result": 2000, "unit": "µg/mL"}, {"measurement": "melting point", "result": 99, "unit": "°C"}, {"measurement": "Ki", "setting": "[5]; [20]", "result": 190, "unit": "nM"}, {"measurement": "selectivity ratio hD3", "setting": "[5]; vs p5-HT1a", "result": 260}, {"measurement": "Ki", "setting": "[6]; [20]", "result": 260, "unit": "nM"}, {"measurement": "selectivity ratio hD2long", "setting": "[6]; vs p5-HT1a", "result": 360}, {"measurement": "Ki", "setting": "[7]; [20]", "result": 260, "unit": "nM"}, {"measurement": "selectivity ratio hD2short", "setting": "[7]; vs p5-HT1a", "result": 360}]}
